In patent US20100323434A1, “Compartmentalized Nerve Culture System” (priority 2009, published 2010):

Assays:
[1] = system: Dorsal root ganglia (DRG) neuronal cultures; assay type: cell-based, rats; conditions: rat, 24 h, 25 ng/mL
Description: A two-step photolithographic process was utilized to create the master mold. Silicon wafers (University Wafer, MA) were coated with SU-8 2002 (Microchem; MA), spun, and soft baked using parameters specified by the manufacturer to yield a resist thickness of 2.5 microns. An array of microchannels, each with dimensions: width=10 microns, length=500 microns, were defined by UV light exposure through a high resolution DPI transparency (Cad/Art, OR). The exposed substrate was once again baked, to enhance polymer cross-linking post exposure, and developed as stated in the resist technical sheet to fully define the microchannels. […]
In order to identify the susceptibility of axons and cell bodies to paclitaxel, we added 25 ng/mL of paclitaxel to either axon or cell body chambers and continued to culture the DRGs for another 24 hours. Once images of the fluorescently labeled cells and axons were captured, we used ImageJ to calculate axon lengths and calculated percent change in axon length compared to 24 hours before taxol exposure.
Studies on the neuroprotective effect of EPO were performed with concurrent administration of paclitaxel, which was applied to either the neuronal cell body or axonal side. […] Axon degeneration was defined as the change in axon length over the total axon length expressed as a percentage.

[2] = system: Primary hippocampal neurons; assay: Oxidative stress by H2O2 added selectively to the somal compartment of the microfluidic device; assay type: cell-based; conditions: added to somal compartment of one group of neuronal cell bodies (2 mM peroxide media); over the course of 24-72 h

Compound | decrease in the length of axons [1] | neuronal cell death and axonal degeneration [2]
CC(=O)O[C@H]1C(=O)[C@@]2(C)[C@H]([C@H](OC(=O)c3ccccc3)[C@]3(O)C[C@H](OC(=O)[C@H](O)[C@@H](NC(=O)c4ccccc4)c4ccccc4)C(C)=C1C3(C)C)[C@]1(OC(C)=O)CO[C@@H]1C[C@@H]2O [paclitaxel, Paclitaxel, reference compound] | 28.6 ± 11.2% | 
OO [H2O2] |  | induction of neuronal cell death and accompanying axonal degeneration
